The nature of series [1]: Assessment of physical stability (Thioflavin T fibrillation). It counts as physicochemical. Further details: key: FND = fibrillation not detected; FD = fibrillation detected. The settings on record: 1 mg/ml, 40° C., ThT. The gist of the method:
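Fibrillation lag-time, in hours, taken where regressions of the initial stable phase and the growth phase intersect. ThT (40 μM) fluorescence monitored at 40 °C for 96 h, 10-min reads each preceded by 300 s mixing. Peptide at 1 mg/ml in 50 mM buffers: phosphate or histidine pH 7.0, acetate pH 4.0.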

In series [2] the target is T1, human amylin receptor 3 (hAMYR3), hCTR2 co-expressed with hRAMP3 (Homo sapiens, UniProt O60896+P30988).
T1 construct: expressed in transfected cells
T1 sequence (P30988 25-474): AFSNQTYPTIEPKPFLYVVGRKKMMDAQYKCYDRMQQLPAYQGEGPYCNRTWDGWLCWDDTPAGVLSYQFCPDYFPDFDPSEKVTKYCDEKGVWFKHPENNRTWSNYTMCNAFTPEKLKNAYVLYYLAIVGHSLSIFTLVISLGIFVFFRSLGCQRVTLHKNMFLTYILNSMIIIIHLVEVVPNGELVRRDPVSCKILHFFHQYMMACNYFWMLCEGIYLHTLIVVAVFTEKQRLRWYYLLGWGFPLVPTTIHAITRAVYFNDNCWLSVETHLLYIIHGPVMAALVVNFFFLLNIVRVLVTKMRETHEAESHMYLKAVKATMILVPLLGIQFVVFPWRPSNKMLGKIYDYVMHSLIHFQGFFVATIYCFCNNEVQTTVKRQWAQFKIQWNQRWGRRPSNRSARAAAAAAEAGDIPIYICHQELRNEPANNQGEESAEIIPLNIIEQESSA
T1 sequence (O60896 24-148 partner): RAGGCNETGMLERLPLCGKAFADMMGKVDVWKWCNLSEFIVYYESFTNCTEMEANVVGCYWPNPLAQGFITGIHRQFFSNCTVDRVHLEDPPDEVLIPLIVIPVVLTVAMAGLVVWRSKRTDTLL
In words: hAMYR3 cAMP assay (AlphaScreen) in COS7 cells. The conditions noted are these: cAMP induction, COS7 cells expressing hAMYR3; Table 1; read-out: hAMYR3 EC50. In kind it is cell-based. From the text: The cell line COS7, originating from African Green Monkey kidney fibroblast cells, was used for establishment of the stable cell lines described below. The COS7 cellular background was used due to it being RAMP naïve, and as such it provides the best available system for testing of the monomeric hCTR and different heterodimeric amylin receptor subtypes functionally generated by introduction of the individual RAMPs.
A cell line expressing the human amylin receptor 3 (hAMYR3) was generated in the COS7 cellular background as stable clones. In brief, hCTR2 (GI:4502547) and hRAMP3 (GI:118572586) were amplified by PCR using primers encoding terminal restriction sites for subcloning. The 5′-end primers additionally encoded a near Kozak consensus sequence to ensure efficient translation. The fidelity of the DNA encoding the receptor was confirmed by DNA sequencing. The PCR products encoding the receptor were subcloned into a proprietary tri-cistronic mammalian expression vector with RAMP3, hCTR2 and neomycin (G418) resistance marker. The mammalian expression vector encoding the receptor was transfected into COS7 cells by a standard liposome transfection method. 48 hours post-transfection, cells were seeded for limited dilution cloning and selected with 1 mg/ml G418 in the culture medium. After 3 weeks, surviving colonies of hAMY3R-expressing cells were picked, propagated and tested in the amylin efficacy assay as described in Example 3 below. The functional generation of the amylin receptor phenotype was verified in the efficacy assay by a left-shifted efficacy response to amylin relative to monomeric calcitonin receptor, and one hAMYR3-expressing clone was chosen for compound profiling.
In vitro activity of test peptides at the hCTR2 and hAMYR3 receptors was assessed by measuring the induction of cAMP following stimulation of the receptor using the AlphaScreen® cAMP Assay kit from Perkin-Elmer.
Briefly, COS7 cells expressing hCTR2 (see Example 2, above) were seeded at 30-40,000 cells per well in 96-well microtiter plates coated with 0.01% poly-L-lysine, and grown for 1 day in culture in 100 μl growth medium [DMEM, 10% FCS, Penicillin (100 IU/ml), Streptomycin (100 μg/ml)]. On the day of analysis, growth medium was removed and the cells were washed once with 200 μl Tyrode buffer [Tyrode's Salts (9.6 g/I), 10 mM HEPES, pH 7.4]. Cells were incubated in 100 μl Tyrode buffer containing increasing concentrations of test peptides, 100 µM IBMX and 0.1% casein for 15 min at 37° C. The reaction was stopped by carefully decanting off the compound/buffer medium and replacing it with lysis/detection buffer (80 μl 0.1% w/v BSA, 5 mM HEPES, 0.3% v/v Tween-20 in deionized water). After incubation at room temperature for 10 min., the cAMP content of the resulting cell lysate was estimated according to the AlphaScreen® cAMP Assay manufacturer's instructions. EC50 values were estimated by computer-aided curve fitting using the 4-parameter logistic (4PL) non-linear model.
On the technique in general: cAMP levels reflect the balance of adenylyl cyclase and phosphodiesterase activity.

*1 amine or outer side, *2 acyl side, *3 side chain or, on linkers, in order; H or OH if unused. Where a SMILES comes first, the peptide text is derived from it. Bridges are numbered along the chain shown (N, C = ends). [ ]: non-standard residue; d: D form. The star is where a group is joined. C20 diacid = O=C(O)CCCCCCCCCCCCCCCCCCC(=O)*; γGlu = O=C(O)[C@H](CCC(=O)[*:2])N[*:1]; Hyp = O=C(O)[C@@H]1C[C@@H](O)CN1; NMeI = CC[C@H](C)[C@H](NC)C(=O)O; Sar = CNCC(=O)O

For orientation: EC50 means the concentration needed to bring the measured effect to its halfway point. On to `CC[C@H](C)[C@@H](C(=O)N[C@@H](CC(C)C)C(=O)N[C@@H](CO)C(=O)N[C@@H](CO)C(=O)N[C@H](C(=O)N[C@@H](CCC(=O)O)C(=O)N[C@H](C(=O)NCC(=O)N[C@@H](CO)C(=O)N[C@@H](CCC(=O)O)C(=O)N[C@H](C(=O)N1CCC[C@H]1C(N)=O)[C@@H](C)O)C(C)C)[C@@H](C)O)N(C)C(=O)[C@H](C)NC(=O)CN(C)C(=O)[C@H](Cc1ccccc1)NC(=O)[C@H](CO)NC(=O)[C@H](CO)NC(=O)[C@H](CCCNC(=N)N)NC(=O)[C@@H](NC(=O)[C@H](CC(C)C)NC(=O)[C@H](Cc1ccccc1)NC(=O)[C@H](Cc1c[nH]cn1)NC(=O)[C@H](C)NC(=O)[C@H](CC(C)C)NC(=O)[C@H](CCCNC(=N)N)NC(=O)[C@H](CCC(=O)O)NC(=O)[C@@H](NC(=O)[C@H](C)NC(=O)[C@@H]1CSSC[C@H](NC(=O)[C@H](CCCNC(=N)N)NC(=O)CC[C@H](NC(=O)CCCCCCCCCCCCCCCCCCC(=O)O)C(=O)O)C(=O)NCC(=O)N[C@@H]([C@@H](C)O)C(=O)N[C@@H](C)C(=O)N[C@@H]([C@@H](C)O)C(=O)N1)[C@@H](C)O)C(C)C` [Compound 22, [19CD]-isoGlu-R-C( )-GTAT-C( )-ATERLAHFLVRSSF-Gly(Me)-A-Ile(Me)-LSSTEVGSETP-NH2] ({C20 diacid-γGlu}-RCGTATCATERLAHFLVRSSF[Sar]A[NMeI]LSSTEVGSETP-NH2; disulfide 2-7), for which the “Fibrillation pH 4.0 (Ac)” value in series [1] (50 mM acetate buffer pH 4.0, 96 hours) was “FND”. Besides, in series [1] (50 mM histidine buffer pH 7.0, 96 hours), the “Fibrillation pH 7.0 (His)” value is recorded as “FD”. The “Fibrillation pH 7.0 (Phos.)” value in series [1] (50 mM phosphate buffer pH 7.0, 96 hours) is recorded as “FND”. Further, the EC50 in series [2] turned out to be 0.59 nM.
On to `CC[C@H](C)[C@@H](C(=O)N[C@@H](CC(C)C)C(=O)N[C@@H](CO)C(=O)N[C@@H](CO)C(=O)N[C@H](C(=O)N[C@@H](CCC(=O)O)C(=O)N[C@H](C(=O)NCC(=O)N[C@@H](CO)C(=O)N[C@@H](Cc1ccccc1)C(=O)N[C@H](C(=O)N1C[C@H](O)C[C@H]1C(N)=O)[C@@H](C)O)C(C)C)[C@@H](C)O)N(C)C(=O)[C@H](C)NC(=O)CN(C)C(=O)[C@H](Cc1ccccc1)NC(=O)[C@H](CO)NC(=O)[C@H](CO)NC(=O)[C@H](CCCNC(=N)N)NC(=O)[C@@H](NC(=O)[C@H](CC(C)C)NC(=O)[C@H](Cc1ccccc1)NC(=O)[C@H](CC(=O)O)NC(=O)[C@H](C)NC(=O)[C@H](CC(C)C)NC(=O)[C@H](CCCNC(=N)N)NC(=O)[C@H](CCC(=O)O)NC(=O)[C@@H](NC(=O)[C@H](C)NC(=O)[C@@H]1CSSC[C@H](NC(=O)[C@H](CCCNC(=N)N)NC(=O)CC[C@H](NC(=O)CCCCCCCCCCCCCCCCCCC(=O)O)C(=O)O)C(=O)NCC(=O)N[C@@H]([C@@H](C)O)C(=O)N[C@@H](C)C(=O)N[C@@H]([C@@H](C)O)C(=O)N1)[C@@H](C)O)[C@@H](C)O` [Compound 42, [19CD]-isoGlu-R-C( )-GTAT-C( )-ATERLADFLTRSSF-Gly(Me)-A-Ile(Me)-LSSTEVGSFT-Hyp-NH2] ({C20 diacid-γGlu}-RCGTATCATERLADFLTRSSF[Sar]A[NMeI]LSSTEVGSFT[Hyp]-NH2; disulfide 2-7), for which the EC50 in series [2] worked out at 0.34 nM.
On the same count and under the same terms, under `CC[C@H](C)[C@@H](C(=O)N[C@@H](CC(C)C)C(=O)N[C@@H](CO)C(=O)N[C@@H](CO)C(=O)N[C@H](C(=O)N[C@@H](CCC(=O)O)C(=O)N[C@H](C(=O)NCC(=O)N[C@@H](CO)C(=O)N[C@@H](CCC(=O)O)C(=O)N[C@H](C(=O)N1CCC[C@H]1C(N)=O)[C@@H](C)O)C(C)C)[C@@H](C)O)N(C)C(=O)[C@H](C)NC(=O)CN(C)C(=O)[C@H](Cc1ccccc1)NC(=O)[C@H](CO)NC(=O)[C@H](CO)NC(=O)[C@H](CCCNC(=N)N)NC(=O)[C@H](Cc1c[nH]cn1)NC(=O)[C@H](CC(C)C)NC(=O)[C@H](Cc1ccccc1)NC(=O)[C@H](Cc1c[nH]cn1)NC(=O)[C@H](C)NC(=O)[C@H](CC(C)C)NC(=O)[C@H](CCCNC(=N)N)NC(=O)[C@H](CCC(=O)O)NC(=O)[C@@H](NC(=O)[C@H](C)NC(=O)[C@@H]1CSSC[C@H](NC(=O)[C@H](CCCNC(=N)N)NC(=O)CC[C@H](NC(=O)CCCCCCCCCCCCCCCCCCC(=O)O)C(=O)O)C(=O)NCC(=O)N[C@@H]([C@@H](C)O)C(=O)N[C@@H](C)C(=O)N[C@@H]([C@@H](C)O)C(=O)N1)[C@@H](C)O` [Compound 26, [19CD]-isoGlu-R-C( )-GTAT-C( )-ATERLAHFLHRSSF-Gly(Me)-A-Ile(Me)-LSSTEVGSETP-NH2] ({C20 diacid-γGlu}-RCGTATCATERLAHFLHRSSF[Sar]A[NMeI]LSSTEVGSETP-NH2; disulfide 2-7) stands 0.12 nM; under `CC[C@H](C)[C@@H](C(=O)N[C@@H](CC(C)C)C(=O)N[C@@H](CO)C(=O)N[C@@H](CO)C(=O)N[C@H](C(=O)N[C@@H](CC(=O)O)C(=O)N[C@H](C(=O)NCC(=O)N[C@@H](CO)C(=O)N[C@@H](CC(=O)O)C(=O)N[C@H](C(=O)N1CCC[C@H]1C(N)=O)[C@@H](C)O)C(C)C)[C@@H](C)O)N(C)C(=O)[C@H](C)NC(=O)CN(C)C(=O)[C@H](Cc1ccccc1)NC(=O)[C@H](CO)NC(=O)[C@H](CO)NC(=O)[C@H](CCCNC(=N)N)NC(=O)[C@@H](NC(=O)[C@H](CC(C)C)NC(=O)[C@H](Cc1ccccc1)NC(=O)[C@H](Cc1c[nH]cn1)NC(=O)[C@H](C)NC(=O)[C@H](CC(C)C)NC(=O)[C@H](CCCNC(=N)N)NC(=O)[C@H](CC(=O)O)NC(=O)[C@@H](NC(=O)[C@H](C)NC(=O)[C@@H]1CSSC[C@H](NC(=O)[C@H](CCCNC(=N)N)NC(=O)CC[C@H](NC(=O)CCCCCCCCCCCCCCCCCCC(=O)O)C(=O)O)C(=O)N2CCC[C@H]2C(=O)N[C@@H]([C@@H](C)O)C(=O)N[C@@H](C)C(=O)N[C@@H]([C@@H](C)O)C(=O)N1)[C@@H](C)O)C(C)C` [Compound 23, [19CD]-isoGlu-R-C( )-PTAT-C( )-ATDRLAHFLVRSSF-Gly(Me)-A-Ile(Me)-LSSTDVGSDTP-NH2] ({C20 diacid-γGlu}-RCPTATCATDRLAHFLVRSSF[Sar]A[NMeI]LSSTDVGSDTP-NH2; disulfide 2-7), 0.13 nM.
